Laboratory results: publication PMC4893161, “The Dynamic Localization of Cytoplasmic Dynein in Neurons Is Driven by Kinesin-1” (Neuron, 2016)

Assays:
[1] = system: anterograde transport of dynein-GFP in axons of primary hippocampal neurons; test: Slow axonal transport photobleaching assay (dynein-GFP midpoint displacement); format: cell-based, mouse; details: for mean velocity of dynein-GFP displacement / mean velocity of dynein-GFP: 3 cultures; for mean velocity of dynein-GFP: 500 ng peptide complexed with Chariot reagent, pre-treated 45–60 min; for mean velocity of dynein-GFP / kymographs with no or retrograde bias: n = 27 (control) and 29 (DIC1a) axons
Protocol: Primary hippocampal neurons from dynein-GFP mice were cultured for 8–10 DIV in 900 μm microfluidic devices in order to image single axons of known polarity. Post bleach motility was imaged for 60 s at 0.5 fps. A line scan was made for every frame of the time series, then movement of the photo-protected dynein-GFP pool was quantified by defining retrograde and anterograde edges at the half-maximal fluorescence value and tracking the displacement of the midpoint (Figure 6B). The peak of fluorescence intensity decreased with time as the dynein-GFP pool shifted in both anterograde and retrograde directions. However, the relative midpoint could be seen moving with a clear bias in the anterograde direction for several seconds (Figure 6C), particularly when overlaid onto the more standard kymograph representation of axonal transport (Figure 6D). […] By fitting a linear regression to each relative midpoint position over time, we observed anterograde velocities ranging from 0.01 to 0.1 μm/s. However, ∼80% of events were in the 0.01 to 0.05 μm/s range or approximately 1–5 mm a day. All net anterograde velocities were consistent with known speeds of slow axonal transport of cytoplasmic dynein in vivo ([Dillman et al., 1996a], [Dillman et al., 1996b]).
First, we tested whether the anterograde transport of dynein was microtubule dependent, using nocodazole (final concentration 30 μM) to depolymerize microtubules. Every viable isolated axon (see Experimental Procedures) within the microgrooves of the chamber was imaged following the bleaching protocol described above. The relative position of the midpoint for each kymograph was calculated (see Figure 7A for examples) and the mean midpoint displacement ± SEM was plotted for all axons (Figure 7B). […] To establish a mean velocity for dynein-GFP, we fitted each midpoint shift with a linear regression.
To directly test our hypothesis that interactions between dynein and kinesin-1 are required for the anterograde transport of dynein in the axon, we designed a peptide to block the interaction between DIC1 and KLC. We chose a 19-amino-acid-long sequence centered on the tryptophan in WD1 of DIC1a. […] Hippocampal neuronal cultures were pre-treated for 45–60 min with either DIC1a or control peptide, complexed with Chariot reagent for delivery across the plasma membrane. […] Consequently, the anterograde transport of dynein-GFP in the axon is critically dependent on the interaction between dynein subunit DIC1a and the KLCs of kinesin-1.
Live cell imaging of hippocampal cultures was performed in Hibernate E low fluorescence medium in a humidified temperature controlled (37°C) live cell chamber, on an Ultraview Vox (PerkinElmer) dual-imaging system mounted on an inverted Nikon Ti microscope with either 100× or 60× apochromat 1.49 NA oil-immersion objectives (Nikon), fully controlled by Volocity software (PerkinElmer). FRAP and slow axonal transport imaging used the spinning-disk confocal with an Ultraview Photokinesis unit for bleaching and a C9100-50 EM-CCD (Hamamatsu) camera. Near-TIRF imaging used the Nikon TIRF system with an EM-CCD C9100-13 camera (Hamamatsu). Image analysis was performed in FIJI ([Schindelin et al., 2012]) with follow up analysis in R (RStudio). Specifics for each experiment are listed in the Supplemental Experimental Procedures. […]
Slow axonal transport imaging and drug treatments
Axons were imaged with a 100X objective (Nikon). Acquisition speed was 1 frame every two seconds.
For Nocodazole and Taxol drug treatments, […] and 200 nM respective final concentrations were added
to each well of the microfluidic chamber in imaging media (Hibernate E Low Fluorescence media) 45-60
minutes prior to imaging, with hydrostatic pressure across the microgrooves of the microfluidic device to
ensure drugs reached the axons within the grooves.
Peptides were supplied by GenScript, and sequences are VCFYLLLQTWVFPYTHDLH and
LVQPLHFLTWDTCYFHYLV for Control and DIC1a-WD1 peptides respectively. […]

KLC1TPR = test: Fluorescence polarization competition assay with TAMRA-labeled WD1pept; format: binding; details: 300 nM TAMRA-DICWD1 and 25 µM KLC TPR (approx. 70% saturation), increasing unlabeled peptide, Figure S3D; typically in triplicate
Protocol: Measurements were performed as previously described ([Pernigo et al., 2013]) with modifications as listed in Supplemental Experimental Procedures. […]
Log unlabelled peptide [nM]
Figure S3. Related to Figure 3.
(A-C) Isoforms of the mouse cytoplasmic dynein intermediate chain, based on data from (Kuta et al., 2010). The splice forms of DIC1 (A) and DIC2 (B) from the genes Dync1i1 and Dync1i2 respectively, relative to the longest isoform of each with key structural elements indicated: coiled coil required for NudE and p150 binding (McKenney et al., 2011; Nyarko et al., 2012); binding sites of the dynein light chains Tctex (Mok et al., 2001), LC8 (Lo et al., 2001) and Roadblock (Susalka et al., 2002); WD repeats 1-7 of the WD40 domain. Sequence alignments of all DIC isoforms centred on the two alternatively spliced regions: AS Loop 1 and AS Loop 2 (C). […]
(D) In a fluorescence polarization competition assay, TAMRA-labeled WD1pept bound to KLC1TPR is competed off with both unlabeled SKIPWD (with a single tryptophan motif) or a longer peptide encompassing both motifs (SKIPWDWE). […]
Fluorescence polarization measurements […]
[…] All fluorescence polarization (FP) measurements were carried out on a BMG Labtech PolarStar Omega plate reader at 20 °C by incubating 300 nM TAMRA-labeled peptides with His6-tagged KLC2TPR at increasing concentrations in 25 mM Hepes pH 7.5, 150 mM NaCl, 5 mM β-mercaptoethanol. […]

EB3 comets in the axon = test: EB3-mCherry comet density in axons; format: cell-based, mouse; details: taxol 200 nM, 45-60 min pre-treatment, mean; DMSO control 0.12; p = 0.008
Protocol: Figure S5. Related to Figure 7.
The slow anterograde transport of dynein in the axon is not dependent on dynamic microtubules.
(A) Taxol treatment reduces the density of EB3 comets in the axon. Example kymographs (left) and quantification (right) of
EB3-mCherry comet density in DMSO control and taxol treated axons. Pre-treatment with taxol (200 nM final concentration) for
45-60 minutes prior to imaging reduces the density of EB3 comets in the axon from 0.12 to 0.03 comets/µm/min. Heavy line =
mean, box = sem, grey dots = individual axons. Axons were imaged at 1 frame per second for 3 minutes using live cell spinning
disk confocal microscopy. […]
neurons showing relative positions of anterograde and retrograde intercept (blue) and the calculated midpoint displacement […]
spots are the velocities for each measured kymograph with colour indicating the overall direction of the midpoint displacement. […]
Taxol mean velocity 0.020±0.004 µm/s. p value calculated by a two-sample t-test. […]
Cells were imaged with 60X objective with near-TIRF illumination to eliminate excessive fluorescence […]
every ten minutes, with stage position controlled by Velocity software. For quantification, a threshold was […]
the movie and integrated density of each neurite was measured over time. […]
to each well of the microfluidic chamber in imaging media (Hibernate E Low Fluorescence media) 45-60 […]

[2] = 500 ng peptide with Chariot reagent, mean ± SEM
[3] = 500 ng peptide with Chariot reagent

`COC(=O)Nc1nc2ccc(C(=O)c3cccs3)cc2[nH]1` [Nocodazole, nocodazole] was tested, and the “net motility / anterograde bias” value ([1]; nocodazole, final concentration 30 μM, Figures 7A and 7B) was “abrogated the anterograde bias in transport seen in DMSO control neurons, with no net motility in either the anterograde or retrograde direction” and the “mean velocity of dynein-GFP displacement” value ([1]; nocodazole, final concentration 30 μM, linear regression, mean ± SEM, n = 22 axons, DMSO control 0.018 ± 0.005 μm/s) was “–0.001 ± 0.005 μm/s”.

With “STNLEWDDSAI [SKIPWD, unlabeled SKIP peptide with a single tryptophan motif]” the “competition of WD1pept” value (KLC1TPR) was “compete off WD1pept in a concentration dependent manner”.

With VCFYLLLQTWVFPYTHDLH [control peptide] the “mean velocity of dynein-GFP” value ([1]; all kymographs, mean ± SEM) was 0.029 ± 0.005 μm/s, the “mean velocity of anterograde only kymographs” value [1, 2] was 0.036 ± 0.004 μm/s and the “kymographs with no or retrograde bias” value [1, 3] was 15%. The “kymographs with anterograde velocity over 0.05 μm/s” value ([1]; 500 ng peptide with Chariot reagent, n = 27 axons (control)) was 22%.

`CC(=O)O[C@H]1C(=O)[C@@]2(C)[C@H]([C@H](OC(=O)c3ccccc3)[C@]3(O)C[C@H](OC(=O)[C@H](O)[C@@H](NC(=O)c4ccccc4)c4ccccc4)C(C)=C1C3(C)C)[C@]1(OC(C)=O)CO[C@@H]1C[C@@H]2O` [Taxol, taxol] was tested, and the “density of EB3 comets in the axon” value (EB3 comets in the axon) was 0.03 comets/µm/min, the “mean velocity of dynein-GFP displacement” value ([1]; taxol 200 nM, 45-60 min pre-treatment, mean ± sem, n = 39 axons, DMSO 0.023±0.005 µm/s, p = 0.6 two-sample t-test) was 0.020±0.004 µm/s and the “inhibition of anterograde bias of dynein transport” value ([1]; taxol 200 nM, Figures S5B–S5D) was “no inhibition in the anterograde bias of dynein transport”.

For “STNLEWDDSAIAPSSEDYDFGDVFPAVPSTPR VPSTDWEDGDL [SKIPWDWE, longer SKIP peptide encompassing both motifs]”, the “competition of WD1pept” value (KLC1TPR) was “longer and higher affinity SKIPWDWE peptide doing so more efficiently”.

With LVQPLHFLTWDTCYFHYLV [DIC1a peptide] the “mean velocity of dynein-GFP” value ([1]; all kymographs, mean ± SEM) was 0.012 ± 0.005 μm/s, the “anterograde bias of dynein-GFP transport” value ([1]; 500 ng peptide with Chariot reagent, Figure 7E) was “substantial reduction in the anterograde bias of dynein-GFP transport” and the “reduction of mean dynein-GFP velocity versus control peptide” value ([1]; 500 ng peptide with Chariot reagent, all kymographs) was “over 50%”. For the same compound, the “mean velocity of anterograde only kymographs” value [1, 2] was 0.029 ± 0.003 μm/s, the “kymographs with no or retrograde bias” value [1, 3] was 38% and the “kymographs showing anterograde velocities over 0.05 μm/s” value ([1]; 500 ng peptide with Chariot reagent, n = 29 axons) was “complete loss”.
